Measured values published in US10807994B2, “Heterocyclic compounds and uses thereof” (NUVATION BIO INC., priority 2017, dated 2020).
Counter-ions that a name gives are not always drawn. Like-named read-outs stand apart in the source and are kept apart here.

Assays:
[1] = biological target: WEE1 kinase enzyme (Homo sapiens (Human), UniProt P30291); experiment: WEE1 IC50 determination, LanthaScreen Terbium labeled TR-FRET kinase assay; format: biochemical; conditions: WEE1 enzyme 1 nM
Protocol: IC50 values of compounds against WEE1 kinase enzyme were determined by LanthaScreen™ Terbium Labeled TR-FRET assay. Kinase assays were performed in 1× kinase buffer (# PV6135, Invitrogen, Life Technologies Grand Island, N.Y.) where total reaction volume was 10 μl in low-volume 384-well plates (#4511, Corning). Serially diluted compounds (3-fold) were incubated with WEE1 Enzyme (1 nM) (# PR7373A, Invitrogen, Life Technologies Grand Island, N.Y.) for 10 min, following which a mixture of ATP […] (# A1852, Sigma, St-Louis, Mo.) and fluorescent-PolyGT substrate (200 nM) (# PV3610, Invitrogen, Life Technologies Grand Island, N.Y.) was added and incubated in dark at room temperature for 1 h. After 1 h, 10 μl stop solution containing Terbium labeled antibody (4 nM) (# PV3529, Invitrogen, Life Technologies Grand Island, N.Y.) and EDTA (# E5134, Sigma, St-Louis, Mo.) (20 mM) in TR-FRET dilution buffer (# PV3574, Invitrogen, Life Technologies Grand Island, N.Y.) was added. Readings were taken in a Synergy Neo Plate reader (BioTek, Winooski) at single excitation of 340 nm and Dual emission at 495 nm and 520 nm respectively.
The % activity of test samples was calculated as (Sample−Min)*100/(Max−Min). [Max: DMSO control, complete reaction with enzyme & DMSO and Min: No enzyme & DMSO]. Percent inhibition (100-% activity) was fitted to the “four-parameter logistic model” in XLfit for determination of IC50 values.

[2] = test system: A427 cells; experiment: Cytotoxicity assay (resazurin), A427 cells, 72 hr; format: cell-based
Protocol: (§1) A549 (CCL-185; ATCC) and A427 (HTB-53; ATCC), both lung epithelial cell lines were seeded in their respective medium (DMEM/MEM, 10569044/41090101; Gibco) at a cell count of 1500 cells per 100 μL per well in a 96 well edge plate (167425; ThermoFisher). Cells were allowed to grow at 37° C. for 24 hr in 5% CO2 environment (culture conditions) in a Nuaire incubator (humidified). Serially diluted test compounds (100 μL) within the desired testing concentration ranges were added to the culture plate were further incubated in culture conditions for 72 hr and 96 hr for A427 and A549 respectively. The experiment was terminated at the designated incubation time by replacing the medium with 100 μL of 1 mM of resazurin (R7017; Sigma) prepared in respective culture medium, and the plates were further incubated in culture conditions for 4-6 hr. Fluorescence was recorded using a multimodal plate reader (Biotek Synergy Neo) at an excitation wavelength of 535 nm and emission wavelength of 590 nm to obtain relative fluorescence units. Data analysis was done by subtracting the background fluorescence (only medium blank) value from each reading and then normalizing with the vehicle control (DMSO treated cells) to obtain percent survival/proliferation. Percent survival was then subtracted by 100 to get the percent inhibition of proliferation which was used to calculate IC50 values. Potency of compounds in other cell lines (As-Pc-1, Panc-10.05, MDAMB231, A172) was determined in an analogous manner.

[3] = test system: A549 cells; experiment: Cytotoxicity assay (resazurin), A549 cells, 96 hr; format: cell-based; conditions: read-out: Cell Viability A549 IC50
Protocol: as §1

[4] = test system: A427 cells; experiment: Cell proliferation assay (Cell Titer-Glo), A427 cells; format: cell-based; conditions: Homo sapiens, A-427, typically 72 hrs post-treatment
Protocol: The effects of test compounds were studied in five cell lines with various histotypes. The cancer cells (Table 4) were harvested during the logarithmic growth period and counted. Adjust cell concentrations to the appropriated number with respective medium, and add 90 μL cell suspensions to 96-well plates. After cells were seeded, the plates were shaken gently to distribute cells evenly and incubated at 37° C., 5% CO2 on day 1.
Cells were treated with test compounds at 9 concentrations within a desired concentration range (e.g. 1.5 nM-10 μM) on day 2 by series diluting the test compound stock solution (10 mM in DMSO) with culture medium. Cell viability was assessed by Cell Titer-Glo® as recommended by Promega (Cat. No.: G7572, Promega) typically 72 hrs post-treatment.
Cell viability data were plotted using GraphPad Prism (version 5, GraphPad Software, Inc., San Diego, Calif.). In addition, a nonlinear regression model with a sigmoidal dose response and variable slope within GraphPad Prism was used to calculate the IC50 value of individual test compounds.

[5] = Homo sapiens, A-427, read-out: Cell Viability A427 IC50

Chain of WEE1 kinase enzyme (P30291 whole entry): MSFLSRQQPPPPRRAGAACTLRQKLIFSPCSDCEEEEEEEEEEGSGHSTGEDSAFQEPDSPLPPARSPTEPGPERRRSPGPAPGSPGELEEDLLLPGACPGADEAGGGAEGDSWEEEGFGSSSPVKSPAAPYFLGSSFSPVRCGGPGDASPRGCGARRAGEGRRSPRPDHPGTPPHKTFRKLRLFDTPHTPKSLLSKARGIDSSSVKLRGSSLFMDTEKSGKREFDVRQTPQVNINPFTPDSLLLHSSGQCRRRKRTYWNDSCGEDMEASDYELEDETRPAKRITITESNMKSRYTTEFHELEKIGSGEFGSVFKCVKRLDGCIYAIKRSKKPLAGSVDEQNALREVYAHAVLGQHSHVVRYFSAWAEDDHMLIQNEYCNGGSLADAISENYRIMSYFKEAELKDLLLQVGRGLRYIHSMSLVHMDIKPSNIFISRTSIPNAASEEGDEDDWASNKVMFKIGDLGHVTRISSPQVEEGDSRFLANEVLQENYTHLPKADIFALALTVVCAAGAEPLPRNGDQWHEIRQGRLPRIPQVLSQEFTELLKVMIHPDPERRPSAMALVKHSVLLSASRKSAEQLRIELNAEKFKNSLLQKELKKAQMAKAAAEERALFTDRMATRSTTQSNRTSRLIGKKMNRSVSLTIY

| SMILES | IC50 [1] | IC50 [2, 5] | IC50 ([3]; Homo sapiens) | IC50 [4] | IC50 ([2]; read-out: Cell Viability A427 IC50) | IC50 [3] |
| --- | --- | --- | --- | --- | --- | --- |
| Cc1cc(Nc2ncc3c(n2)OCN(c2c(Cl)cccc2Cl)C3=O)ccc1N1CCNCC1 [Example 1.33, 3-(2,6-dichlorophenyl)-7-(3-methyl-4-(piperazin-1-yl)phenylamino)-2H-pyrimido[5,4-e][1,3]oxazin-4(3H)-one] | 0.05 µM | 2.82 µM | 2.69 µM |  |  |  |
| CNCC(=O)N1CCN(c2ccc(Nc3ncc4c(n3)OCN(c3c(Cl)cccc3Cl)C4=O)cc2)CC1 [Example 1.57, 3-(2,6-dichlorophenyl)-7-(4-(4-(2-(methylamino)acetyl)piperazin-1-yl)phenylamino)-2H-pyrimido[5,4-e][1,3]oxazin-4(3H)-one hydrochloride] | 0.101 µM | 4.86 µM | 6.23 µM |  |  |  |
| O=C1c2cnc(Nc3ccc(N4CCNCC4)cc3)nc2OCN1c1c(Cl)cccc1Cl [Example 1.5] | 0.069 µM | 3.91 µM | 3.78 µM | 4.29 µM |  |  |
| O=C1c2cnc(Nc3ccc(N4CCN(CCO)CC4)cc3)nc2OCN1c1c(Cl)cccc1Cl [Example 1.58, 3-(2,6-dichlorophenyl)-7-(4-(4-(2-hydroxyethyl)piperazin-1-yl)phenylamino)-2H-pyrimido[5,4-e][1,3]oxazin-4(3H)-one] | 0.234 µM | 7.12 µM | 12.3 µM |  |  |  |
| O=C1c2cnc(Nc3ccc(N4CCNCC4)cc3)nc2OCN1c1c(F)cccc1Cl [Example 1.27] | 0.052 µM | 6.97 µM | 4.39 µM | 7.75 µM |  |  |
| O=C1c2cnc(Nc3ccc(N4CCNCC4)c(Cl)c3)nc2OCN1c1c(Cl)cccc1Cl [Example 1.40, 7-(3-chloro-4-(piperazin-1-yl)phenylamino)-3-(2,6-dichlorophenyl)-2H-pyrimido[5,4-e][1,3]oxazin-4(3H)-one] | 0.02 µM | 2.65 µM | 2.73 µM |  |  |  |
| CNCCNc1ccc(Nc2ncc3c(n2)OCN(c2c(Cl)cccc2Cl)C3=O)cc1 [Example 1.54, 3-(2,6-dichlorophenyl)-7-(4-(2-(methylamino)ethylamino)phenylamino)-2H-pyrimido[5,4-e][1,3]oxazin-4(3H)-one Hydrochloride] | 0.2 µM | 10.5 µM | 9.58 µM |  |  |  |
| CN1CCN(c2ccc(Nc3ncc4c(n3)OCN(c3c(Cl)cccc3Cl)C4=O)cc2)CC1 [Example 1.1] | 0.056 µM | 4.47 µM | 9.7 µM |  |  |  |
| CN1CCN(c2ccc(Nc3ncc4c(n3)OCN(c3c(Cl)cccc3Cl)C4=O)cc2CO)CC1 [Example 1.20] | 0.048 µM | 5.5 µM | 6.02 µM | 3.64 µM |  |  |
| C[C@@H]1CNCCN1c1ccc(Nc2ncc3c(n2)OCN(c2c(Cl)cccc2Cl)C3=O)cc1 [Example 1.49, (R)-3-(2,6-dichlorophenyl)-7-(4-(2-methylpiperazin-1-yl)phenylamino)-2H-pyrimido[5,4-e][1,3]oxazin-4(3H)-one] | 0.041 µM | 5.42 µM | 4.39 µM |  |  |  |
| CNCCOc1ccc(Nc2ncc3c(n2)OCN(c2c(Cl)cccc2Cl)C3=O)cc1 [Example 1.48, 3-(2,6-dichlorophenyl)-7-(4-(2-(methylamino)ethoxy)phenylamino)-2H-pyrimido[5,4-e][1,3]oxazin-4(3H)-one] | 0.103 µM | 11.1 µM | 8.38 µM |  |  |  |
| O=C1c2cnc(Nc3ccc(N4CCNC[C@@H]4CO)cc3)nc2OCN1c1c(Cl)cccc1Cl [Example 1.37, (R)-3-(2,6-dichlorophenyl)-7-(4-(2-(hydroxymethyl)piperazin-1-yl)phenylamino)-2H-pyrimido[5,4-e][1,3]oxazin-4(3H)-one] | 0.113 µM |  | 9.82 µM |  |  |  |
| CN1CCC(c2ccc(Nc3ncc4c(n3)OCN(c3c(Cl)cccc3Cl)C4=O)cc2)CC1 [Example 1.52, 3-(2,6-dichlorophenyl)-7-(4-(1-methylpiperidin-4-yl)phenylamino)-2H-pyrimido[5,4-e][1,3]oxazin-4(3H)-one] | 0.0505 µM | 3.35 µM | 4.72 µM |  |  |  |
| O=C1c2cnc(Nc3ccc(C4CCNCC4)c(CO)c3)nc2OCN1c1c(Cl)cccc1Cl [Example 1.34, 3-(2,6-dichlorophenyl)-7-(3-(hydroxymethyl)-4-(piperidin-4-yl)phenylamino)-2H-pyrimido[5,4-e][1,3]oxazin-4(3H)-one] | 0.014 µM |  |  |  | 4.81 µM | 21 µM |
| O=C1c2cnc(Nc3ccc(N4CCNC[C@H]4CO)cc3)nc2OCN1c1c(Cl)cccc1Cl [Example 1.38, (S)-3-(2,6-dichlorophenyl)-7-(4-(2-(hydroxymethyl)piperazin-1-yl)phenylamino)-2H-pyrimido[5,4-e][1,3]oxazin-4(3H)-one] | 0.176 µM |  | 9.15 µM |  |  |  |
| O=C1c2cnc(Nc3ccc(N4CCCC4)cc3)nc2OCN1c1c(Cl)cccc1Cl [Example 1.56, 3-(2,6-dichlorophenyl)-7-(4-(pyrrolidin-1-yl)phenylamino)-2H-pyrimido[5,4-e][1,3]oxazin-4(3H)-one] | > 5 µM | 10.5 µM | 1.86 µM |  |  |  |
| NCC(=O)N1CCN(c2ccc(Nc3ncc4c(n3)OCN(c3c(Cl)cccc3Cl)C4=O)cc2)CC1 [Example 1.46, 7-(4-(4-(2-aminoacetyl)piperazin-1-yl)phenylamino)-3-(2,6-dichlorophenyl)-2H-pyrimido[5,4-e][1,3]oxazin-4(3H)-one] | 0.053 µM |  | 9.86 µM |  |  |  |
| O=C1c2cnc(Nc3ccc(N4CCC(O)CC4)cc3)nc2OCN1c1c(Cl)cccc1Cl [Example 1.45, 3-(2,6-dichlorophenyl)-7-(4-(4-hydroxypiperidin-1-yl)phenylamino)-2H-pyrimido[5,4-e][1,3]oxazin-4(3H)-one] | 0.288 µM |  | > 30 µM |  |  |  |
| COc1cc(Nc2ncc3c(n2)OCN(c2c(Cl)cccc2Cl)C3=O)ccc1C1CCNCC1 [Example 1.50, 3-(2,6-dichlorophenyl)-7-(3-methoxy-4-(piperidin-4-yl)phenylamino)-2H-pyrimido[5,4-e][1,3]oxazin-4(3H)-one] | 0.028 µM | 3.48 µM | 2.79 µM |  |  |  |
| O=C1c2cnc(Nc3ccc(N4CCNCC4)nc3)nc2OCN1c1c(Cl)cccc1Cl [Example 1.36, 3-(2,6-dichlorophenyl)-7-((6-(piperazin-1-yl)pyridin-3-yl)amino)-2,3-dihydro-4H-pyrimido[5,4-e][1,3]oxazin-4-one] | 0.104 µM | 10.4 µM | 8.12 µM |  |  |  |
| CN1CCC(c2ccc(Nc3ncc4c(n3)OCN(c3c(Cl)cccc3Cl)C4=O)cc2CO)CC1 [Example 1.42, 3-(2,6-dichlorophenyl)-7-(3-(hydroxymethyl)-4-(1-methylpiperidin-4-yl)phenylamino)-2H-pyrimido[5,4-e][1,3]oxazin-4(3H)-one] | 0.025 µM | 3.2 µM | 5.6 µM |  |  |  |
| C[C@@H]1CN[C@@H](C)CN1c1ccc(Nc2ncc3c(n2)OCN(c2c(Cl)cccc2Cl)C3=O)cc1 [Example 1.47, 3-(2,6-dichlorophenyl)-7-(4-((2R,5S)-2,5-dimethylpiperazin-1-yl)phenylamino)-2H-pyrimido[5,4-e][1,3]oxazin-4(3H)-one hydrochloride] | 0.07 µM | 7.1 µM | 4.1 µM |  |  |  |
